Marks after values point to notes of the source that are not given here.
Test system: adult subjects with psoriasis
Assay: Phase II/2b clinical study in plaque psoriasis: efficacy and patient-reported outcomes
Assay type: in vivo, human
Settings: for PGA response rate (primary endpoint): interim analysis; for subjects with ≥4 improvement in pruritus NRS score from baseline: baseline NRS score ≥4; for PGA response rate (PGA 0 or 1 and ≥2-grade improvement): mITT OC; for PASI50 response rate / PASI75 response rate / PASI90 response rate: Week 16; for PGA treatment success: Week 16 (4 weeks after end of treatment)
Text: This was a multicenter (United States, Canada, and Japan), randomized, double-blind (Sponsor-unblind), vehicle-controlled, 6-arm, parallel-group, dose-finding study in adult subjects with psoriasis. Certain study personnel at each site were unblinded to dose-frequency.
The study consisted of 3 periods: up to 4 weeks Screening, 12 weeks double-blind treatment, and 4 weeks post-treatment follow-up. Study visits occurred at Screening; Baseline; weeks 1, 2, 4, 8, and 12 during the treatment period; and 2 and 4 weeks after the last application of study treatment (i.e., at weeks 14 and 16). Additional visits could occur, as needed, for early withdrawals or to follow-up on any skin reactions or ongoing AEs. A subject's total duration of study participation was approximately 16 to 20 weeks.
Two concentrations of Tapinarof cream (0.5% and 1%) and a vehicle control were evaluated following application to all psoriasis lesions (except on the scalp) once (QD) or twice daily (BID) for 12 weeks. There were no planned dose adjustments during the study.
Efficacy was assessed by using a 5-point static Physician Global Assessment (PGA) (0-4 scale), the Psoriasis Area and Severity Index (PASI), % BSA involvement, target lesion assessments (erythema, scaling, and plaque thickness), and subject-reported itch/pruritus severity using a numeric rating scale (NRS) (from the Psoriasis Symptom Diary [PSD]). Additional subject-reported outcomes included the daily PSD (which also contained severity and bother items for 3 additional symptoms). Investigator global impression of change item (assessing change in severity of psoriasis symptoms) and 2 subject global impressions of change items (assessing change in severity of psoriasis symptoms and change in severity of itch/pruritus) were also assessed.
Physician Global Assessment: The PGA is a clinical tool for assessing the current state/severity of a subject's psoriasis. It is a static 5-point morphological assessment of overall disease severity, as determined by the investigator, using the clinical characteristics of erythema, plaque thickness, and scaling as guidelines. At each specified time point, the PGA is made without reference to previous scores. Variations of the PGA are frequently used in clinical studies because it is a simple assessment that is more similar to the assessments actually used in clinical practice. Scoring system ranges from 0 (=Clear) to 4 (=Severe).
Psoriasis Area and Severity Index: The PASI scoring system is a widely-used standard clinical tool for assessing the severity of psoriasis that takes into account the overall severity of erythema (redness), thickness (induration), and scale, as well as the extent of BSA affected with psoriasis. The 3 clinical signs are each graded on a 5 point scale (0 to 4) and the % BSA affected is scored on a 7-point scale (0 to 6) for each of the 4 specified body regions (head, upper extremities, trunk, and lower extremities). The individual scores are multiplied by a weighted factor for each body region; the sum of these scores gives the overall PASI score. Higher scores indicate more severe disease. PASI is a static assessment made without reference to previous scores.
Body Surface Area: The extent of BSA affected by psoriasis is a general indicator of disease severity and was measured throughout the study. The extent of BSA to which study treatment was applied was also recorded. For the purpose of approximate clinical estimation, the total palmar surface of the palm plus 5 digits was assumed to be approximately equivalent to 1% BSA.
Target Lesion Grading: A single target lesion was selected at Baseline to assess efficacy in treating a discrete area rather than an overall average of all areas. For that lesion, the severity of erythema, scaling, and plaque thickness was assessed by the investigator on a 5-point scale ranging from “0=none” to “4=severe”. […]

CC(C)c1c(O)cc(/C=C/c2ccccc2)cc1O [Tapinarof, 3,5-Dihydroxy-4-isopropyl-trans-stilbene]
Target lesion Erythema, percent change from Baseline (Mean) (1% BID, Early WD): −46.67%
Target lesion Plaque thickness, percent change from Baseline (Mean) (1% BID, Early WD): −46.67%
Target lesion Scaling, percent change from Baseline (Mean) (1% BID, Early WD): −52.50%
PGA response at Week 12 (1% BID, Fitzpatrick skin type I/II): 60%
PGA response at Week 12 (1% BID, Fitzpatrick skin type III/IV): 54%
PGA response at Week 12 (1% BID, Fitzpatrick skin type V/VI): 100%
Target lesion Erythema, percent change from Baseline (Mean) (1% BID, Follow-up Week 14): −65.42%
Target lesion Plaque thickness, percent change from Baseline (Mean) (1% BID, Follow-up Week 14): −67.50%
Target lesion Scaling, percent change from Baseline (Mean) (1% BID, Follow-up Week 14): −67.50%
Target lesion Erythema, percent change from Baseline (Mean) (1% BID, Follow-up/Week 16): −78.33%
Target lesion Plaque thickness, percent change from Baseline (Mean) (1% BID, Follow-up/Week 16): −76.67%
Target lesion Scaling, percent change from Baseline (Mean) (1% BID, Follow-up/Week 16): −77.50%
Target lesion Erythema, percent change from Baseline (Mean) (1% BID, Week 1): −12.50%
Target lesion Plaque thickness, percent change from Baseline (Mean) (1% BID, Week 1): −18.75%
Target lesion Scaling, percent change from Baseline (Mean) (1% BID, Week 1): −25.00%
Target lesion Erythema, percent change from Baseline (Mean) (1% BID, Week 2): −25.52%
Target lesion Plaque thickness, percent change from Baseline (Mean) (1% BID, Week 2): −33.33%
Target lesion Scaling, percent change from Baseline (Mean) (1% BID, Week 2): −32.55%
Target lesion Erythema, percent change from Baseline (Mean) (1% BID, Week 4): −44.94%
Target lesion Plaque thickness, percent change from Baseline (Mean) (1% BID, Week 4): −48.51%
Target lesion Scaling, percent change from Baseline (Mean) (1% BID, Week 4): −55.65%
Target lesion Erythema, percent change from Baseline (Mean) (1% BID, Week 8): −62.50%
Target lesion Plaque thickness, percent change from Baseline (Mean) (1% BID, Week 8): −62.82%
Target lesion Scaling, percent change from Baseline (Mean) (1% BID, Week 8): −70.51%
PGA response rate (primary endpoint) (1% BID, Week 8): 42%
Mean change in nine items of the PSD from baseline (1% BID, Week 12): −4.5^‡
Mean change in total target lesion grading scores from baseline (1% BID, Week 12): −6.9*
Target lesion Erythema, percent change from Baseline (Mean) (1% BID, Week 12): −77.65%
Target lesion Plaque thickness, percent change from Baseline (Mean) (1% BID, Week 12): −81.82%
Target lesion Scaling, percent change from Baseline (Mean) (1% BID, Week 12): −78.79%
absolute mean change in percent BSA affected from baseline (1% BID, Week 12): 4.9
decrease in total target lesion grading scores (mean change) (1% BID, Week 12): 6.9
subjects with ≥4 improvement in pruritus NRS score from baseline (1% BID, Week 12): 55%
PGA response rate (PGA 0 or 1 and ≥2-grade improvement) (1% BID, Week 12): 65%
PASI50 response rate (1% BID): 83%
PASI75 response rate (1% BID): 63%
PASI90 response rate (1% BID): 38%
PGA treatment success (1% BID): 58%
subjects with severity of pruritus symptoms rated very/moderately improved (1% BID, baseline to Week 12): 70%
PGA response at Week 12 (1% BID, psoriasis duration 5 years to <10 years): 67%
PGA response at Week 12 (1% BID, psoriasis duration 6 months to <5 years): 50%
PGA response at Week 12 (1% BID, psoriasis duration ≥10 years): 73%
PGA response at Week 12 (1% BID, ≥10% BSA affected at baseline): 64%
PASI75 responders who maintained response from Week 12 to Week 16 (1% QD): 93%
PGA responders who maintained response from Week 12 to Week 16 (1% QD): 86%
difference in PGA response rate, active minus vehicle (1% QD-vehicle QD, Week 12): 51.0%
PGA response at Week 12 (1% QD, 1 to <10% BSA affected at baseline): 60%
Target lesion Erythema, percent change from Baseline (Mean) (1% QD, Early WD): −47.62%
Target lesion Plaque thickness, percent change from Baseline (Mean) (1% QD, Early WD): −60.71%
Target lesion Scaling, percent change from Baseline (Mean) (1% QD, Early WD): −57.14%
PGA response at Week 12 (1% QD, Fitzpatrick skin type I/II): 67%
PGA response at Week 12 (1% QD, Fitzpatrick skin type III/IV): 47%
PGA response at Week 12 (1% QD, Fitzpatrick skin type V/VI): 75%
Target lesion Erythema, percent change from Baseline (Mean) (1% QD, Follow-up Week 14): −70.65%
Target lesion Plaque thickness, percent change from Baseline (Mean) (1% QD, Follow-up Week 14): −70.29%
Target lesion Scaling, percent change from Baseline (Mean) (1% QD, Follow-up Week 14): −67.39%
Target lesion Erythema, percent change from Baseline (Mean) (1% QD, Follow-up/Week 16): −74.24%
Target lesion Plaque thickness, percent change from Baseline (Mean) (1% QD, Follow-up/Week 16): −65.91%
Target lesion Scaling, percent change from Baseline (Mean) (1% QD, Follow-up/Week 16): −71.59%
Target lesion Erythema, percent change from Baseline (Mean) (1% QD, Week 1): −17.14%
Target lesion Plaque thickness, percent change from Baseline (Mean) (1% QD, Week 1): −13.10%
Target lesion Scaling, percent change from Baseline (Mean) (1% QD, Week 1): −24.29%
Target lesion Erythema, percent change from Baseline (Mean) (1% QD, Week 2): −35.68%
Target lesion Plaque thickness, percent change from Baseline (Mean) (1% QD, Week 2): −30.47%
Target lesion Scaling, percent change from Baseline (Mean) (1% QD, Week 2): −32.81%
Target lesion Erythema, percent change from Baseline (Mean) (1% QD, Week 4): −51.88%
Target lesion Plaque thickness, percent change from Baseline (Mean) (1% QD, Week 4): −47.04%
Target lesion Scaling, percent change from Baseline (Mean) (1% QD, Week 4): −53.49%
Target lesion Erythema, percent change from Baseline (Mean) (1% QD, Week 8): −65.06%
Target lesion Plaque thickness, percent change from Baseline (Mean) (1% QD, Week 8): −60.90%
Target lesion Scaling, percent change from Baseline (Mean) (1% QD, Week 8): −71.79%
PGA response rate (primary endpoint) (1% QD, Week 8): 32%
Mean change in nine items of the PSD from baseline (1% QD, Week 12): −4.0^†
Mean change in total target lesion grading scores from baseline (1% QD, Week 12): −7.0*
Target lesion Erythema, percent change from Baseline (Mean) (1% QD, Week 12): −81.88%
Target lesion Plaque thickness, percent change from Baseline (Mean) (1% QD, Week 12): −70.29%
Target lesion Scaling, percent change from Baseline (Mean) (1% QD, Week 12): −83.33%
absolute mean change in percent BSA affected from baseline (1% QD, Week 12): 4.3
decrease in total target lesion grading scores (mean change) (1% QD, Week 12): 7.0
subjects with ≥4 improvement in pruritus NRS score from baseline (1% QD, Week 12): 73%
PGA response rate (PGA 0 or 1 and ≥2-grade improvement) (1% QD, Week 12): 56%
PASI50 response rate (1% QD): 77%
PASI75 response rate (1% QD): 58%
PASI90 response rate (1% QD): 42%
PGA treatment success (1% QD): 54%
PGA response at Week 12 (1% QD, psoriasis duration 5 years to <10 years): 50%
PGA response at Week 12 (1% QD, psoriasis duration 6 months to <5 years): 80%
PGA response at Week 12 (1% QD, psoriasis duration ≥10 years): 50%
PGA response at Week 12 (1% QD, ≥10% BSA affected at baseline): 40%
subjects rating itch symptoms very improved or moderately improved (1% and 0.5% concentration groups, Week 12): 70-77%
subjects rated by investigators as very improved or moderately improved (1% concentration groups, Week 12): > 80%
subjects rating pruritus symptoms very improved or moderately improved (1% groups, Week 12): 70-76%
